The text below walks through data of patent US10160763B2, “WDR5 inhibitors and modulators” (Vanderbilt University, priority 2016, dated 2018).

The assay concerns the target WDR5 (Δ23, residues 24-334) (Homo sapiens, UniProt P61964). Description: biochemical. The conditions noted are these: Kd (M), FPA-based binding affinity at the WDR5 WIN site; IC50 converted to Kd by modified Cheng-Prusoff equation; average of two experiments.

Regarding `COc1cc(C(=O)NC(C)c2cccc(-c3cn4c(n3)CCC4)c2)ccc1C` (stereo not drawn) [B201], the dissociation constant Kd (as a rule, the free concentration of one partner at which half of the binding sites on the other are occupied at equilibrium, for simple one-to-one binding) was 2.3e-08 M.
The result for `CN(C)C(=O)CCC(=O)NCc1cccc(-c2cn3c(n2)CCC3)c1` [B124] reads 2.25e-07 M; that for `COc1cccc(C(=O)N(Cc2cccc(-c3cn4c(n3)CCC4)c2)CC(C)C)c1` [B85], 2.85e-06 M.
Consider `CC(=O)N1CC(CC(=O)NCc2cccc(-c3cn4c(n3)CCC4)c2)C1` [B141], for which the Kd came out at 1e-08 M.
The result for `Cc1cc(C(=O)N(C)Cc2cccc(-c3cn4c(n3)CCC4)c2)ccc1Cl` [B38] reads 4.48e-07 M; that for `Cn1cc(CC(=O)NCc2cccc(-c3cn4c(n3)CCC4)c2)c2ccccc21` [B121], 2.78e-05 M.
In the case of `COc1cccc(C(=O)NCc2cc(-c3cn4c(n3)CCC4)ccc2OCc2ccccc2)c1` [B115] it was 1.3e-08 M.
`O=C(Cc1cccc(Br)c1)NCc1cccc(-c2cn3c(n2)CCC3)c1` [B136] had a Kd of 3.09e-07 M.
Take `COc1ccc(C(=O)N(Cc2cccc(-c3cn4c(n3)CCC4)c2)C(C2CC2)C2CC2)cc1OC` [B55]: binding was put at a Kd of 5.25e-06 M.
The result for `CS(=O)(=O)NCc1cccc(C(=O)NCc2cccc(-c3cn4c(n3)CCC4)c2)c1` [B183] reads 1.34e-06 M; that for `COc1cccc(C(=O)NCc2cc(-c3cn4c(n3)CCC4)ccc2Oc2ccccc2)c1` [B119], 1.8e-08 M; that for `COc1cccc(CCC(=O)NCc2cccc(-c3cn4c(n3)CCC4)c2)c1` [B157], 9.1e-08 M.
In the case of `O=C(NCc1cccc(-c2cn3c(n2)CCC3)c1)c1ccc(Cl)nc1` [B17] it was 1.86e-06 M; in that of `COc1cccc(C(=O)NCc2cc(-c3cn4c(n3)CCC4)ccc2N2CCC(OC)C2)c1` (stereo not drawn) [B178], 1.73e-06 M.
Regarding `CC(=O)N1CCCC(CC(=O)NCc2cccc(-c3cn4c(n3)CCC4)c2)C1` (stereo not drawn) [B140], binding was put at a Kd of 8.67e-07 M.
The molecule `Cc1ccc(C(=O)NCc2cccc(-c3cn4c(n3)CCC4)c2)cc1Br` [B171] had a Kd of 6.26e-07 M.
For the molecule `O=C(Cc1ccc(Cl)c(Cl)c1)NCc1cc(-c2cn3c(n2)CCC3)ccc1OCc1ccccc1` [B116], the Kd is 2.76e-07 M.
On to `Cc1ccccc1-c1ccc(-c2cn3c(n2)CCC3)cc1CNC(=O)Cc1ccc(Cl)c(Cl)c1` [B145], for which the Kd is 6.77e-06 M.
Regarding `COc1cc(C(=O)N(Cc2cc(-c3cn4c(n3)CCC4)ccc2N2CCOCC2)CC2CC2)ccc1C` [B200], the dissociation constant (Kd) was determined as 4.04e-06 M.
`O=C(CCc1ccccc1)NCc1cccc(-c2cn3c(n2)CCC3)c1` [B13] showed a Kd of 2.3e-06 M.
Take `CCOc1cccc(C(=O)NCc2cccc(-c3cn4c(n3)CCC4)c2)c1` [B78]: the Kd turned out to be 1.48e-07 M.
The result for `CC(C)N(Cc1cccc(-c2cn3c(n2)CCC3)c1)C(=O)Nc1cc(Cl)cc(Cl)c1` [B72] reads 3.01e-07 M; that for `Cc1ccc(-c2ccc(-c3cn4c(n3)CCC4)cc2CNC(=O)Cc2ccc(Cl)c(Cl)c2)cc1` [B163], 1e-05 M; that for `COc1cccc(C(=O)N(Cc2cc(C)cc(-c3cn4c(n3)CCC4)c2)CC2CC2)c1` [B28], 7.24e-07 M.
In the case of `COc1ccc(C(=O)N(Cc2cccc(-c3cn4c(n3)CCC4)c2)C2CC2)cc1OC` [B53] it was 1.14e-06 M; in that of `COc1cccc(C(=O)N(Cc2cc(-c3cn4c(n3)CCC4)ccc2N2CCCC2)CC2CC2)c1` [B102], 5.1e-07 M.
In the case of `CCOc1cccc(C(=O)N(C)Cc2cccc(-c3cn4c(n3)CCC4)c2)c1` [B110] it was 1e-09 M; in that of `CC(C)C(=O)N1CCCC(C(=O)NCc2cccc(-c3cn4c(n3)CCC4)c2)C1` (stereo not drawn) [B185], 1.55e-07 M; in that of `O=C(Cc1ccc(Cl)c(F)c1)NCc1cccc(-c2cn3c(n2)CCC3)c1` [B82], 5.02e-07 M.
Consider `O=C(Cc1ccc(F)c(Cl)c1)NCc1cc(-c2cn3c(n2)CCC3)ccc1OC1CCC1` [B197], for which the Kd came out at 2.17e-06 M.
In the case of `CC1CN(c2ccc(-c3cn4c(n3)CCC4)cc2CNC(=O)Cc2ccc(Cl)c(Cl)c2)CC(C)O1` (stereo not drawn) [B165], binding was characterised by a dissociation constant (Kd) of 3.32e-06 M. This Kd lies about 1.5-fold higher than the previous one.
The result for `O=C(NCc1cccc(-c2cn3c(n2)CCC3)c1)C1CCc2ccccc2C1` (stereo not drawn) [B42] reads 5.26e-07 M; that for `CC(C(=O)N(Cc1cccc(-c2cn3c(n2)CCC3)c1)C(C)C)c1cc(Cl)cc(Cl)c1` (stereo not drawn) [B75], 4.1e-07 M.
The molecule `COc1cccc(C(=O)NCc2cc(-c3cn4c(n3)CCC4)ccc2N2CCCCC2)c1` [B103] showed a Kd of 1.04e-07 M.
In the case of `CC(c1cccc(-c2cn3c(n2)CCC3)c1)N(CC1CC1)C(=O)Cc1ccc(Cl)c(Cl)c1` (stereo not drawn) [B190] it was 1.1e-08 M; in that of `O=C(C1CCc2ccccc2C1)N(Cc1cccc(-c2cn3c(n2)CCC3)c1)CC1CC1` (stereo not drawn) [B62], 2.81e-06 M.
Turning to `O=C(Cc1ccc(Cl)c(Cl)c1)NCc1cc(-c2cn3c(n2)CCC3)ccc1N1CCCCC1` [B101], the dissociation constant (Kd) was 2.75e-05 M.
For `O=C(CCc1cccnc1)NCc1cccc(-c2cn3c(n2)CCC3)c1` [B30], binding was characterised by a dissociation constant (Kd) of 3.36e-06 M.
In the case of `Cc1ccc(C(=O)NCc2cccc(-c3cn4c(n3)CCC4)c2)cc1C(F)(F)F` [B130], binding was characterised by a dissociation constant (Kd) of 9.72e-07 M.
For `CC(=O)N1CCCC(C(=O)NCc2cc(-c3cn4c(n3)CCC4)ccc2OC2CCC2)C1` (stereo not drawn) [B164], binding was characterised by a dissociation constant (Kd) of 2.31e-07 M.
In the case of `COc1cc(C(=O)NCc2cc(-c3cn4c(n3)CCC4)cnc2N2CCOCC2)ccc1C` [B223, N-((5-(6,7-dihydro-5H-pyrrolo[1,2-a]imidazol-2-yl)-2-morpholinopyridin-3-yl)methyl)-3-methoxy-4-methylbenzamide] it was 9.1e-08 M.
On to `COc1cc(C(=O)NCc2cc(-c3cn4c(n3)CCC4)ccc2N2CCOCC2)ccc1C` [B194], for which binding was characterised by a dissociation constant (Kd) of 2.04e-06 M. This Kd is about 22-fold higher than that of the molecule before.
In the case of `O=C(Cc1ccc2c(c1)OCO2)NCc1cccc(-c2cn3c(n2)CCC3)c1` [B154] it was 1e-09 M; in that of `O=C(NCc1cccc(-c2cn3c(n2)CCC3)c1)c1cccc2cccnc12` [B14], 5.19e-06 M; in that of `O=C(NCc1cccc(-c2cn3c(n2)CCC3)c1)c1cccc(Cl)c1Cl` [B167], 3.8e-07 M.
